Assay [1] relates to experimental autoimmune encephalomyelitis (EAE). In words: Active EAE, 2×MOG35-55+CFA, clinical course (Example 1/2). It is filed as in vivo, C57BL/6J (B6) mice. To be noted: for Clinical EAE course: daily treatment from D0, 5 mg/kg/d IP. As for the experimental part: EAE was induced in female C57BL/6J mice as described previously (Noubade et al., 2007, J Clin Invest., 117(11):3507-3518). Mice were injected subcutaneously with an emulsion containing 200 μg of MOG35-55 peptide ([…] (SEQ ID NO: 1) and complete Freund adjuvant (CFA; Sigma-Aldrich) supplemented with 200 μg of Mycobacterium tuberculosis H37RA (Difco Laboratories) in the posterior right and left flank; 1 week later, all mice were similarly injected at 2 sites on the right and left flank anterior of the initial injection sites (2×MOG35-55+CFA). Mice received 5 mg/kg/d SB203580 dihydrochloride (Tocris) by IP injection in a total volume of 200 μL or an equal volume of carrier every day from the day of immunization.
EAE was induced in B10.BR, MKK6-Tg, and dn-p38-Tg mice by immunizing with a single injection of 200 μg of MOG97-114 (TCFFRDHSYQEEAAVELK (SEQ ID NO: 2)) or PLP180-209 ([…] (SEQ ID NO: 3)) in CFA. Immediately thereafter, each animal received 200 ng of PTX (List Biologic Laboratories) by IV injection. Mice were scored daily starting at day 10 after injection as previously described (Noubade et al., 2007, J Clin Invest., 117(11):3507-3518). Clinical quantitative trait variables were generated as previously described (Butterfield et al., 1998, J Immunol., 161(4):1860-1867).
Age-matched male and female C57BL/6J (B6) mice were treated with the p38 MAPK inhibitor SB203580 (SB) starting at the time of immunization for the induction of EAE with myelin oligodendrocyte glycoprotein peptide 35-55 (MOG35-55) and complete Freund's adjuvant (CFA). Clinical EAE course in male and female B6 mice immunized with 2×MOG35-55-CFA treated daily with either carrier or SB starting on D0. […] In separate experiments, Clinical EAE course in female B6 mice immunized with 2×MOG35-55-CFA and randomly selected for daily treatment with either carrier or SB upon reaching a clinical score≧1. It was observed that disease progression could also be halted in female mice if the inhibitor was administered at the first onset of clinical signs (FIG. 1B).

The test system is the same in assay [2]. In words: Active EAE, 2×MOG35-55/CFA protocol, clinical course (Example 3). The assay is classed as in vivo, C57BL/6J (B6) mice. Particulars: 5 mg/kg/day i.p. daily from day of immunization; for EAE disease course: 5 mg/kg/day. As for the experimental part:
Female (FIG. 15A) and male (FIG. 15B) B6 mice were immunized using the 2×MOG35-55/CFA protocol, followed by daily injections of SB203580 or carrier. Data represent 2 independent experiments, pooled. Data were analyzed as indicated in Materials and Methods. […] For individual time points, * ≦0.05; ** ≦0.01, *** ≦0.001, **** ≦0.0001. Numbers in parentheses indicate the total number of animals studied.
EAE was induced essentially as described previously (Noubade R, et al., J Clin Invest. 2007 November; 117(11):3507-18). Briefly, mice were injected s.c. with an emulsion containing 100 μg of MOG35-55 peptide ([…]; SEQ ID NO: 1) (Anaspec, USA) and complete Freund's adjuvant (CFA) (Sigma-Aldrich, St. Louis, Mo.) supplemented with 200 μg of Mycobacterium tuberculosis H37Ra (Difco Laboratories, Detroit, Mich.) in the posterior right and left flanks. One week later all mice were similarly injected at two sites on the right and left flank anterior of the initial injection sites (2×MOG35-55/CFA). Alternatively, mice were immunized with 200 μg of MOG35-55 in CFA, followed by i.v. administration of 200 ng pertussis toxin (List Biological) (1×MOG35-55/CFA/PTX). In some experiments (as indicated), mice received 5 mg/kg/day of SB203580 dihydrochloride (Tocris, Ellisville, Mo.) by i.p. injection in a total volume of 200 μl or an equal volume of carrier daily starting on the day of immunization. Mice were scored daily starting at day 10 post-injection as previously described (Noubade R, et al., J Clin Invest. 2007 November; 117(11):3507-18). Passive EAE was induced as follows. […]
All statistical analyses were performed using GraphPad Prism 6 software (GraphPad Software Inc, San Diego, Calif.). The significance of differences in cytokine production and flow cytometry data were determined using 2-way ANOVA. The significance of differences observed in clinical course of EAE was determined by 2-way ANOVA and post-hoc analysis using Fisher's LSD test for individual time points (significance indicated by “*” above each time point). […] EAE data from replicate experiments were analyzed by heterogeneity testing. […]

Where [3] appears, read: female B6 mice, treatment from D0 stopped after 30 days.

Entries after “also recorded” stand apart in the source; their conditions may differ.

Regarding `C[S+]([O-])c1ccc(-c2nc(-c3ccncc3)c(-c3ccc(F)cc3)[nH]2)cc1` (stereo not shown) [SB203580], the “Clinical EAE course” value in assay [1] (female B6 mice) is given as “female-specific therapy for EAE; also recorded: ameliorated EAE”; in assay [1] (female B6 mice, listed as SB) it was “fully prevented disease; also recorded: completely inhibits EAE”; in assay [1] (male B6 mice, listed as SB) it was “completely unresponsive”. In assay [1] (female B6 mice, daily treatment started upon reaching clinical score ≧1), the “Disease progression (clinical EAE course)” value is “halted”. Further, the “Disease severity on readministration” value in assay [1] (female B6 mice, re-treated from D41 thru D60) is “modest reduction and stabilization of their disease severity”. In assay [1] (setting [3]), the “EAE severity reached after discontinuing treatment” value is “equivalent severity to those seen in carrier-treated mice”. For the same compound, the “Time to appearance of clinical signs of EAE after discontinuing treatment” value in assay [1] (setting [3]) was 2 to 3 days. In addition, the EAE disease course entry in assay [2] (female B6 mice) is “robustly ameliorated; also recorded: significant difference in EAE course”; in assay [2] (male B6 mice), “showed no therapeutic efficacy; also recorded: augmented; also recorded: did not reduce EAE”. Further, the EAE onset result in assay [2] (male B6 mice) is on record as “accelerated”.

The values are drawn from patent US20140127231A1, “p38 MAPK Pathway Inhibitors as Female-Specific Therapeutics” (UNIVERSITY OF VERMONT, priority 2012, published 2014).
